What was measured:
[1] = tested on: forearm of a human volunteer; test: Human vasoconstriction (blanching) testing; type: in vivo; details: for AUC (sum of the individual vasoconstriction scores through 36 hours): compound alone; for vasoconstriction activity: tested alone; for effect on the vasoconstrictor activity of loteprednol etabonate: co-applied, 1:5 molar ratio loteprednol etabonate:enhancer, especially at the lower concentrations
Protocol: Test compounds at varying mM concentrations as noted below were dissolved in ethanol/propylene glycol (9/1) solution, and 20 μL of the mixtures were applied to filter paper discs, 0.7 cm in diameter. After ethanol evaporation, each disc was attached to waterproof adhesive tape, then applied to the forearm of a human volunteer and left in place for 4 hours. Groups of 8 forearms were tested at each concentration. The intensity of vasoconstriction was judged at 2, 4, 6, 8, 10, 12, 18, 24 and 36 hours after removal of the discs.
The grading scale for the vasoconstriction activity was as follows: 0, normal skin; 1, slight pallor of indistinct outline; 2, pallor with at least two corners outlined; 3, even pallor with a clear outline of the application sites; 4, very intense pallor. The scores were totaled at each concentration at each time after removal to give a total score at each time interval and an overall total for each concentration. The higher the total score, the greater the blanching or anti-inflammatory effect.

[2] = tested on: forearms of human volunteers; test: Further human vasoconstriction testing; type: in vivo; details: for AUC (sum of the individual vasoconstriction scores through 24 hours): steroid 0.1 mM alone; for effect on the vasoconstriction activity of BEM-17V: BEM-17V 0.1 mM; for effect on the vasoconstriction activity of BEM-17V / effect on the vasoconstriction activity of LE: enhancer 0.1-0.5 mM; for effect on the vasoconstriction activity of LE: LE 0.1 mM; for synergism with LE: LE:enhancer ratios 1:1, 1:2, 1:3, 1:4 and 1:5
Protocol: The resultant LE and BEM-17V solutions were then mixed (1:1) with vehicle only, or with the Δ^1-CA or Δ^1-MeCA solutions, so that LE solutions (0.1 mM) and BEM-17V solutions (0.1 mM) containing various concentrations of Δ^1-CA (0 to 0.5 mM) or Δ^1-MeCA (0 to 0.5 mM) were obtained. The resultant mixtures (20 μl) were loaded onto circular patches (6.5 mm diameter) that were attached to a water impervious adhesive film (3M). After the evaporation of ethanol, the patches and film were applied to the forearms of human volunteers for 4 hours. […] The grading scale was as follows: 0, normal skin; 1, slight pallor; 2, pallor with at least two corners outlined; 3, even pallor with a clear outline of the application sites; 4, very intense pallor. […] As before, an overall total for each concentration was then obtained.

[3] = target: T1, receptor (Rattus norvegicus, UniProt P06536); details: medium containing 10^−5M cortienic acid as competitor; cited from earlier work
T1 sequence (P06536 1-795): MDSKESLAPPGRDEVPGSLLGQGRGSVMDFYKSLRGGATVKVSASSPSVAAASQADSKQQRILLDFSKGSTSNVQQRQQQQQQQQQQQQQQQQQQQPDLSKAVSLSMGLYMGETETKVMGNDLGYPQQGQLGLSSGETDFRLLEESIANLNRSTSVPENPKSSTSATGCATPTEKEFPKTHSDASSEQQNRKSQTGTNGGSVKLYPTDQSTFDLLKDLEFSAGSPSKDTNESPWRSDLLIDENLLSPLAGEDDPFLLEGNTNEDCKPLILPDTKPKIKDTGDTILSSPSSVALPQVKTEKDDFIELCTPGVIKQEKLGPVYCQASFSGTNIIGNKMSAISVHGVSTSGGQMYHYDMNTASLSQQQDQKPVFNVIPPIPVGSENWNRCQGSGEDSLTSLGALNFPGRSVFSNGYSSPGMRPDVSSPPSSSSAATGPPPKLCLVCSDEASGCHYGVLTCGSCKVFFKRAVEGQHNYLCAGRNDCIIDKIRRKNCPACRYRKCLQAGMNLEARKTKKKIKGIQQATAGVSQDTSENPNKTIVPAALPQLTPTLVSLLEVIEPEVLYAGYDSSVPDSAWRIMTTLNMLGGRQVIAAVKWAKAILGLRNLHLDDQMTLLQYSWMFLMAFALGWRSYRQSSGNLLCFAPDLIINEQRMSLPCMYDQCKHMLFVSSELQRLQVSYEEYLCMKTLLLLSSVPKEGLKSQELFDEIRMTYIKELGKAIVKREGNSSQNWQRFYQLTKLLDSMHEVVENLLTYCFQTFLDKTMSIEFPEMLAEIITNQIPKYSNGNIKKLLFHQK

[4] = control (0 mM) of the Δ^1-CA series
[5] = control (0 mM) of the Δ^1-MeCA series

Row | Compound | AUC (sum of the individual vasoconstriction scores through 36 hours) ([1]; 0.5 mM) | AUC (sum of the individual vasoconstriction scores through 36 hours) ([1]; 5 mM) | vasoconstriction activity [1] | AUC (sum of the individual vasoconstriction scores through 24 hours) [2, 4] | AUC (sum of the individual vasoconstriction scores through 24 hours) [2, 5] | intrinsic activity in receptor binding studies [3] | effect on the vasoconstrictor activity of loteprednol etabonate [1] | AUC (sum of the individual vasoconstriction scores through 36 hours) ([1]; 2.5 mM) | AUC (sum of the individual vasoconstriction scores through 36 hours) ([1]; 25 mM) | AUC (sum of the individual vasoconstriction scores through 36 hours) ([1]; 50 mM) | effect on the vasoconstriction activity of BEM-17V [2] | effect on the vasoconstriction activity of LE [2] | synergism with LE [2] | other results
1 | CCOC(=O)O[C@]1(C(=O)OCCl)CC[C@H]2[C@@H]3CCC4=CC(=O)C=C[C@]4(C)[C@H]3[C@@H](O)C[C@@]21C [Loteprednol Etabonate, chloromethyl 17α-ethoxycarbonyloxy-11β-hydroxyandrosta-1,4-dien-3-one-17β-carboxylate, reference compound] | 39 | 117 | significant activity | 99 | 114 | – | – | – | – | – | – | – | – | AUC (sum of the individual vasoconstriction scores through 36 hours) ([1]; 0.1 mM, 20 μL on disc, 4 h application, 8 forearms): 9; AUC (sum of the individual vasoconstriction scores through 36 hours) ([1]; 1 mM): 90; AUC (sum of the individual vasoconstriction scores through 36 hours) ([1]; 10 mM): 122
2 | CCOC(=O)OC1(C(=O)O)CCC2C3CCC4=CC(=O)C=CC4(C)C3C(O)CC21C (stereo not drawn) [the corresponding 17α-ethyl carbonate, 17α-ethoxycarbonyloxy-11β-hydroxyandrost-1,4-dien-3-one-17β-carboxylic acid] | – | – | – | – | – | inactive | – | – | – | – | – | – | – | –
3 | COC(=O)[C@@]1(O)CCC2C3CCC4=CC(=O)C=CC4(C)C3C(O)CC21C (stereo partly drawn) [Δ^1-Cortienic Acid Methyl Ester, methyl 11β,17α-dihydroxyandrosta-1,4-dien-3-one-17β-carboxylate] | 0 | 0 | neither Δ^1-cortienic acid nor Δ^1-cortienic acid methyl ester had any vasoconstriction activity | – | – | – | significantly enhanced | 0 | 0 | 0 | no activity-increasing effect | increased the vasoconstriction activity of LE | synergistic results | –
4 | CC12C=CC(=O)C=C1CCC1C2C(O)CC2(C)C1CC[C@]2(O)C(=O)O (stereo partly drawn) [Δ^1-Cortienic Acid, 11β,17α-dihydroxyandrosta-1,4-dien-3-one-17β-carboxylic acid] | 0 | 0 | neither Δ^1-cortienic acid nor Δ^1-cortienic acid methyl ester had any vasoconstriction activity | – | – | inactive | significantly enhanced | 0 | 0 | 0 | no activity-increasing effect | increased the vasoconstriction activity of LE | synergistic results | –
5 | betamethasone 17-valerate [Betamethasone Valerate, reference compound] | – | – | – | 107 | 112 | – | – | – | – | – | – | – | – | –
6 | chloromethyl 17α-ethoxycarbonyloxy-11β-hydroxyandrosta-1,4-dien-3-one-17β-carboxylate [Loteprednol Etabonate, reference compound] | – | – | – | – | – | intrinsically active | – | – | – | – | – | – | – | –

Reference: patent US7923441B2, “Enhancement of activity and/or duration of action of soft anti-inflammatory steroids for topical or other local application” (priority 2003, dated 2011)
